Assay results published in ChEMBL document CHEMBL3244053, “Structural modification study of bis(substituted aminoalkylamino)anthraquinones. An evaluation of the relationship of the [2-[(2-hydroxyethyl)amino]ethyl]amino side chain with antineoplastic activity” (1979).
Active and inactive are the calls of the source. The calls are words filed in the database; no cut-off is given here.

Key:
P388 [1] = test: Antineoplastic activity against mouse P388 cells allografted in CDF1 mouse assessed as survival at 6.25 mg/kg qd for 9 days; type: functional, organism-based; design: dose 6.25 mg/kg
P388 [2] = test: Antineoplastic activity against mouse P388 cells allografted in CDF1 mouse assessed as survival at 12.5 mg/kg qd for 9 days; type: functional, organism-based; design: dose 12.5 mg/kg
P388 [3] = test: Antineoplastic activity against mouse P388 cells allografted in CDF1 mouse at 12.5 mg/kg qd for 9 days relative to control; type: functional
P388 [4] = test: Antineoplastic activity against mouse P388 cells allografted in CDF1 mouse at 6.25 mg/kg qd for 9 days relative to control; type: functional
P388 [5] = test: Antineoplastic activity against mouse P388 cells allografted in CDF1 mouse at 50 mg/kg qd for 9 days relative to control; type: functional
P388 [6] = test: Antineoplastic activity against mouse P388 cells allografted in CDF1 mouse at 100 mg/kg qd for 9 days relative to control; type: functional
P388 [7] = test: Antineoplastic activity against mouse P388 cells allografted in CDF1 mouse assessed as survival at 50 mg/kg qd for 9 days; type: functional, organism-based; design: dose 50 mg/kg
Colon 26 [8] = test: Antineoplastic activity against mouse Colon 26 cells allografted in CDF1 mouse assessed as survival at 20 mg/kg qd for 9 days; type: functional, organism-based; design: dose 20 mg/kg
P388 [9] = test: Antineoplastic activity against mouse P388 cells allografted in CDF1 mouse assessed as survival at 5 mg/kg qd for 9 days; type: functional, organism-based; design: dose 5 mg/kg
L1210 [10] = test: Antineoplastic activity against mouse L1210 cells allografted in CDF1 mouse at 30 mg/kg qd for 9 days relative to control; type: functional
B16 [11] = test: Antineoplastic activity against mouse B16 cells allografted in BDF1 mouse at 40 mg/kg qd for 9 days relative to control; type: functional
B16 [12] = test: Antineoplastic activity against mouse B16 cells allografted in BDF1 mouse at 20 mg/kg qd for 9 days relative to control; type: functional
B16 [13] = test: Antineoplastic activity against mouse B16 cells allografted in BDF1 mouse assessed as survival at 10 mg/kg qd for 9 days; type: functional, organism-based; design: dose 10 mg/kg
L1210 [14] = test: Antineoplastic activity against mouse L1210 cells allografted in CDF1 mouse assessed as survival at 15 mg/kg qd for 9 days; type: functional, organism-based; design: dose 15 mg/kg
P388 [15] = test: Antineoplastic activity against mouse P388 cells allografted in CDF1 mouse at 5 mg/kg qd for 9 days relative to control; type: functional
Colon 26 [16] = test: Antineoplastic activity against mouse Colon 26 cells allografted in CDF1 mouse at 20 mg/kg qd for 9 days relative to control; type: functional
P388 [17] = test: Antineoplastic activity against mouse P388 cells allografted in CDF1 mouse assessed as survival at 20 mg/kg qd for 9 days; type: functional, organism-based; design: dose 20 mg/kg
P388 [18] = test: Antineoplastic activity against mouse P388 cells allografted in CDF1 mouse assessed as survival at 10 mg/kg qd for 9 days; type: functional, organism-based; design: dose 10 mg/kg
L1210 [19] = test: Antineoplastic activity against mouse L1210 cells allografted in CDF1 mouse at 15 mg/kg qd for 9 days relative to control; type: functional
B16 [20] = test: Antineoplastic activity against mouse B16 cells allografted in BDF1 mouse at 80 mg/kg qd for 9 days relative to control; type: functional
P388 [21] = test: Antineoplastic activity against mouse P388 cells allografted in CDF1 mouse at 10 mg/kg qd for 9 days relative to control; type: functional
P388 [22] = test: Antineoplastic activity against mouse P388 cells allografted in CDF1 mouse at 40 mg/kg qd for 9 days relative to control; type: functional
P388 [23] = test: Antineoplastic activity against mouse P388 cells allografted in CDF1 mouse assessed as survival at 40 mg/kg qd for 9 days; type: functional, organism-based; design: dose 40 mg/kg
B16 [24] = test: Antineoplastic activity against mouse B16 cells allografted in BDF1 mouse at 10 mg/kg qd for 9 days relative to control; type: functional
B16 [25] = test: Antineoplastic activity against mouse B16 cells allografted in BDF1 mouse assessed as survival at 40 mg/kg qd for 9 days; type: functional, organism-based; design: dose 40 mg/kg
B16 [26] = test: Antineoplastic activity against mouse B16 cells allografted in BDF1 mouse assessed as survival at 80 mg/kg qd for 9 days; type: functional, organism-based; design: dose 80 mg/kg
Colon 26 [27] = test: Antineoplastic activity against mouse Colon 26 cells allografted in CDF1 mouse at 10 mg/kg qd for 9 days relative to control; type: functional
B16 [28] = test: Antineoplastic activity against mouse B16 cells allografted in BDF1 mouse assessed as survival at 20 mg/kg qd for 9 days; type: functional, organism-based; design: dose 20 mg/kg
P388 [29] = test: Antineoplastic activity against mouse P388 cells allografted in CDF1 mouse at 20 mg/kg qd for 9 days relative to control; type: functional
L1210 [30] = test: Antineoplastic activity against mouse L1210 cells allografted in CDF1 mouse assessed as survival at 25 mg/kg qd for 9 days; type: functional, organism-based; design: dose 25 mg/kg
B16 [31] = test: Antineoplastic activity against mouse B16 cells allografted in BDF1 mouse assessed as survival at 50 mg/kg qd for 9 days; type: functional, organism-based; design: dose 50 mg/kg
B16 [32] = test: Antineoplastic activity against mouse B16 cells allografted in BDF1 mouse assessed as survival at 100 mg/kg qd for 9 days; type: functional, organism-based; design: dose 100 mg/kg
L1210 [33] = test: Antineoplastic activity against mouse L1210 cells allografted in CDF1 mouse at 25 mg/kg qd for 9 days relative to control; type: functional
P388 [34] = test: Antineoplastic activity against mouse P388 cells allografted in CDF1 mouse assessed as survival at 100 mg/kg qd for 9 days; type: functional, organism-based; design: dose 100 mg/kg
B16 [35] = test: Antineoplastic activity against mouse B16 cells allografted in BDF1 mouse at 100 mg/kg qd for 9 days relative to control; type: functional
B16 [36] = test: Antineoplastic activity against mouse B16 cells allografted in BDF1 mouse at 50 mg/kg qd for 9 days relative to control; type: functional

What does the source list for `CCN(CC)CCC1=C(Cl)C(=O)c2ccccc2C1=O`?
Activity (P388 [1]): Active; Activity (P388 [2]): Active; T/C (P388 [3]): 101%; T/C (P388 [4]): 96%

With `CN(C)CCC1=CC(=O)c2ccccc2C1=O` as the compound, how does the T/C (P388 [5]) read?
The T/C was 100%.

What about the T/C (P388 [6]) of the same compound?
The T/C was 97%.

And the Activity (P388 [7])?
Its Activity is “Active”.

Which results are given for `CN(C)CCNc1ccc(NCCN(C)C)c2c1C(=O)c1ccccc1C2=O`?
Activity (Colon 26 [8]): Active; Activity (P388 [9]): Active; T/C (L1210 [10]): 150%; T/C (B16 [11]): 148%; T/C (B16 [12]): 142%; Activity (B16 [13]): Active; Activity (L1210 [14]): Active; T/C (P388 [15]): 133%; T/C (Colon 26 [16]): 113%; Activity (P388 [17]): Active; Activity (P388 [18]): Active; T/C (L1210 [19]): 117%; T/C (B16 [20]): 146%; T/C (P388 [21]): 149%; T/C (P388 [22]): 202%; Activity (P388 [23]): Active; T/C (B16 [24]): 125%; Activity (B16 [25]): Active; Activity (B16 [26]): Active; T/C (Colon 26 [27]): 123%; Activity (B16 [28]): Active; T/C (P388 [29]): 163%

Which results are given for `OCCNCCNc1ccnc2cc(Cl)ccc12`?
Activity (L1210 [30]): Active; Activity (B16 [31]): Active; T/C (P388 [5]): 116%; T/C (P388 [6]): 118%; Activity (P388 [7]): Active; Activity (B16 [32]): Active; T/C (L1210 [33]): 111%; Activity (P388 [34]): Active; T/C (B16 [35]): 110%; T/C (B16 [36]): 99%
